Results from patent US9738634B2, “Heterocyclic amide compound and herbicide” (SYNGENTA PARTICIPATIONS AG, priority 2013, dated 2017).

How the values were obtained:
Format in all cases: in vivo
Conditions in all cases: treatment dosage 320 g/ha
barnyard grass [1] = test: Test Example 1: weedkilling efficacy, preemergent weed treatment in the submerged state; A: barnyard grass
How it was run: (§1)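 Pots of alluvial soil flooded 4 cm deep, sown with barnyard grass, bulrush and oval-leafed pondweed and transplanted with 2.5-leaf rice. Emulsified compound applied to the water surface on sowing day at stated g/ha; greenhouse 25–30 °C, effects assessed 3 weeks after treatment.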

redroot pigweed [2] = test: Test Example 3: weedkilling efficacy through soil treatment; L: redroot pigweed
How it was run: (§2)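 Crop and weed responses were judged three weeks after a uniform surface spray of the water-diluted emulsion at the given g/ha rate. Seeds sat beneath about 1.5 cm of sterilized diluvial soil, and boxes stood in a greenhouse at 25 to 30° C.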

fig-leafed goosefoot [3] = test: Test Example 3: weedkilling efficacy through soil treatment; M: fig-leafed goosefoot
How it was run: as §2

common wind-grass [4] = test: Test Example 4: weedkilling efficacy by foliar treatment; J: common wind-grass
How it was run: (§3)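 Seeds are spot-sown into sterilized diluvial soil and covered with about 1.5 cm of soil. After 14 days' greenhouse growth at 25 to 30° C, plants are sprayed on stems and leaves with diluted emulsion at the stated g/ha rate, then scored at 3 weeks.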

green foxtail [5] = test: Test Example 3: weedkilling efficacy through soil treatment; E: green foxtail
How it was run: as §2

soybean [6] = test: Test Example 4: foliar treatment, effect on crop; d: soybean
How it was run: as §3

redroot pigweed [7] = test: Test Example 4: weedkilling efficacy by foliar treatment; L: redroot pigweed
How it was run: as §3

bulrush [8] = test: Test Example 1: weedkilling efficacy, preemergent weed treatment in the submerged state; B: bulrush
How it was run: as §1

Indian mallow [9] = test: Test Example 3: weedkilling efficacy through soil treatment; K: Indian mallow
How it was run: as §2

black-grass [10] = test: Test Example 3: weedkilling efficacy through soil treatment; H: black-grass
How it was run: as §2

fig-leafed goosefoot [11] = test: Test Example 4: weedkilling efficacy by foliar treatment; M: fig-leafed goosefoot
How it was run: as §3

Italian ryegrass [12] = test: Test Example 3: weedkilling efficacy through soil treatment; I: Italian ryegrass
How it was run: as §2

chickweed [13] = test: Test Example 4: weedkilling efficacy by foliar treatment; N: chickweed
How it was run: as §3

directly sown rice [14] = test: Test Example 3: soil treatment, effect on crop; b: directly sown rice
How it was run: as §2

Indian mallow [15] = test: Test Example 4: weedkilling efficacy by foliar treatment; K: Indian mallow
How it was run: as §3

corn [16] = test: Test Example 3: soil treatment, effect on crop; c: corn
How it was run: as §2

oval-leafed pondweed [17] = test: Test Example 1: weedkilling efficacy, preemergent weed treatment in the submerged state; C: oval-leafed pondweed
How it was run: as §1

beet [18] = test: Test Example 3: soil treatment, effect on crop; f: beet
How it was run: as §2

wheat [19] = test: Test Example 3: soil treatment, effect on crop; e: wheat
How it was run: as §2

Italian ryegrass [20] = test: Test Example 4: weedkilling efficacy by foliar treatment; I: Italian ryegrass
How it was run: as §3

common wind-grass [21] = test: Test Example 3: weedkilling efficacy through soil treatment; J: common wind-grass
How it was run: as §2

soybean [22] = test: Test Example 3: soil treatment, effect on crop; d: soybean
How it was run: as §2

catchweed [23] = test: Test Example 3: weedkilling efficacy through soil treatment; O: catchweed
How it was run: as §2

corn [24] = test: Test Example 4: foliar treatment, effect on crop; c: corn
How it was run: as §3

green foxtail [25] = test: Test Example 4: weedkilling efficacy by foliar treatment; E: green foxtail
How it was run: as §3

crabgrass [26] = test: Test Example 4: weedkilling efficacy by foliar treatment; D: crabgrass
How it was run: as §3

birds-eye speedwell = test: Test Example 3: weedkilling efficacy through soil treatment; p: birds-eye speedwell
How it was run: as §2

transplanted rice = test: Test Example 1: preemergent weed treatment in the submerged state, effect on crop; a: transplanted rice
How it was run: as §1

wild oat [27] = test: Test Example 3: weedkilling efficacy through soil treatment; G: wild oat
How it was run: as §2

barnyard grass [28] = test: Test Example 2: weedkilling efficacy, growth period weed treatment in the submerged state; A: barnyard grass
How it was run: (§4)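 Barnyard grass, bulrush and oval-leafed pondweed sown in alluvial soil under 4 cm flooding, greenhouse 25 to 30° C. At 1-2 leaf stage, water-diluted emulsion applied to the water surface at stated g/ha dosages; effects scored 3 weeks later.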

crabgrass [29] = test: Test Example 3: weedkilling efficacy through soil treatment; D: crabgrass
How it was run: as §2

rapeseed [30] = test: Test Example 3: soil treatment, effect on crop; g: rapeseed
How it was run: as §2

chickweed [31] = test: Test Example 3: weedkilling efficacy through soil treatment; N: chickweed
How it was run: as §2

oval-leafed pondweed [32] = test: Test Example 2: weedkilling efficacy, growth period weed treatment in the submerged state; C: oval-leafed pondweed
How it was run: as §4

bulrush [33] = test: Test Example 2: weedkilling efficacy, growth period weed treatment in the submerged state; B: bulrush
How it was run: as §4

barnyard grass [34] = test: Test Example 4: weedkilling efficacy by foliar treatment; F: barnyard grass
How it was run: as §3

rapeseed [35] = test: Test Example 4: foliar treatment, effect on crop; g: rapeseed
How it was run: as §3

black-grass [36] = test: Test Example 4: weedkilling efficacy by foliar treatment; H: black-grass
How it was run: as §3

barnyard grass [37] = test: Test Example 3: weedkilling efficacy through soil treatment; F: barnyard grass
How it was run: as §2

wild oat [38] = test: Test Example 4: weedkilling efficacy by foliar treatment; G: wild oat
How it was run: as §3

catchweed [39] = test: Test Example 4: weedkilling efficacy by foliar treatment; O: catchweed
How it was run: as §3

wheat [40] = test: Test Example 4: foliar treatment, effect on crop; e: wheat
How it was run: as §3

beet [41] = test: Test Example 4: foliar treatment, effect on crop; f: beet
How it was run: as §3

directly sown rice [42] = test: Test Example 4: foliar treatment, effect on crop; b: directly sown rice
How it was run: as §3

## CC1=C(c2ccccc2)C(=O)N(C(C)(C)C(=O)Nc2cc(C)cc(Cl)n2)CO1 [B-2-43]
Barnyard grass [1]
  A (barnyard grass) weedkilling efficacy grade: 5 (weed kill ratio 90% or more, (practically complete withering))
Redroot pigweed [2]
  L (redroot pigweed) weedkilling efficacy grade: 3 (weed kill ratio 40% or more, less than 70%)
fig-leafed goosefoot [3]
  M (fig-leafed goosefoot) weedkilling efficacy grade: 3 (weed kill ratio 40% or more, less than 70%)
Common wind-grass [4]
  J (common wind-grass) weedkilling efficacy grade: 5 (weed kill ratio 90% or more, (practically complete withering))
Green foxtail [5]
  E (green foxtail) weedkilling efficacy grade: 4 (weed kill ratio 70% or more, less than 90%)
Soybean [6]
  d (soybean) effect on crop grade: 4 (weed kill ratio 70% or more, less than 90%)
Redroot pigweed [7]
  L (redroot pigweed) weedkilling efficacy grade: 3 (weed kill ratio 40% or more, less than 70%)
Bulrush [8]
  B (bulrush) weedkilling efficacy grade: 5 (weed kill ratio 90% or more, (practically complete withering))
Indian mallow [9]
  K (Indian mallow) weedkilling efficacy grade: 0 (weed kill ratio 5% or less (practically no effect))
black-grass [10]
  H (black-grass) weedkilling efficacy grade: 5 (weed kill ratio 90% or more, (practically complete withering))
fig-leafed goosefoot [11]
  M (fig-leafed goosefoot) weedkilling efficacy grade: 4 (weed kill ratio 70% or more, less than 90%)
Italian ryegrass [12]
  I (Italian ryegrass) weedkilling efficacy grade: 5 (weed kill ratio 90% or more, (practically complete withering))
Chickweed [13]
  N (chickweed) weedkilling efficacy grade: 3 (weed kill ratio 40% or more, less than 70%)
Directly sown rice [14]
  b (directly sown rice) effect on crop grade: 3 (weed kill ratio 40% or more, less than 70%)
Indian mallow [15]
  K (Indian mallow) weedkilling efficacy grade: 3 (weed kill ratio 40% or more, less than 70%)
Corn [16]
  c (corn) effect on crop grade: 0 (weed kill ratio 5% or less (practically no effect))
oval-leafed pondweed [17]
  C (oval-leafed pondweed) weedkilling efficacy grade: 5 (weed kill ratio 90% or more, (practically complete withering))
Beet [18]
  f (beet) effect on crop grade: 4 (weed kill ratio 70% or more, less than 90%)
Wheat [19]
  e (wheat) effect on crop grade: 1 (weed kill ratio 5% or more, less than 20%)
Italian ryegrass [20]
  I (Italian ryegrass) weedkilling efficacy grade: 5 (weed kill ratio 90% or more, (practically complete withering))
Common wind-grass [21]
  J (common wind-grass) weedkilling efficacy grade: 5 (weed kill ratio 90% or more, (practically complete withering))
Soybean [22]
  d (soybean) effect on crop grade: 2 (weed kill ratio 20% or more, less than 40%)
Catchweed [23]
  O (catchweed) weedkilling efficacy grade: 4 (weed kill ratio 70% or more, less than 90%)
Corn [24]
  c (corn) effect on crop grade: 3 (weed kill ratio 40% or more, less than 70%)
Green foxtail [25]
  E (green foxtail) weedkilling efficacy grade: 5 (weed kill ratio 90% or more, (practically complete withering))
Crabgrass [26]
  D (crabgrass) weedkilling efficacy grade: 5 (weed kill ratio 90% or more, (practically complete withering))
birds-eye speedwell
  P (birds-eye speedwell) weedkilling efficacy grade: 5 (weed kill ratio 90% or more, (practically complete withering))
Transplanted rice
  a (transplanted rice) effect on crop grade: 3 (weed kill ratio 40% or more, less than 70%)
Wild oat [27]
  G (wild oat) weedkilling efficacy grade: 5 (weed kill ratio 90% or more, (practically complete withering))
Barnyard grass [28]
  A (barnyard grass) weedkilling efficacy grade: 5 (weed kill ratio 90% or more, (practically complete withering))
Crabgrass [29]
  D (crabgrass) weedkilling efficacy grade: 5 (weed kill ratio 90% or more, (practically complete withering))
Rapeseed [30]
  g (rapeseed) effect on crop grade: 4 (weed kill ratio 70% or more, less than 90%)
Chickweed [31]
  N (chickweed) weedkilling efficacy grade: 4 (weed kill ratio 70% or more, less than 90%)
oval-leafed pondweed [32]
  C (oval-leafed pondweed) weedkilling efficacy grade: 5 (weed kill ratio 90% or more, (practically complete withering))
Bulrush [33]
  B (bulrush) weedkilling efficacy grade: 5 (weed kill ratio 90% or more, (practically complete withering))
Barnyard grass [34]
  F (barnyard grass) weedkilling efficacy grade: 5 (weed kill ratio 90% or more, (practically complete withering))
Rapeseed [35]
  g (rapeseed) effect on crop grade: 4 (weed kill ratio 70% or more, less than 90%)
black-grass [36]
  H (black-grass) weedkilling efficacy grade: 5 (weed kill ratio 90% or more, (practically complete withering))
Barnyard grass [37]
  F (barnyard grass) weedkilling efficacy grade: 5 (weed kill ratio 90% or more, (practically complete withering))
Wild oat [38]
  G (wild oat) weedkilling efficacy grade: 3 (weed kill ratio 40% or more, less than 70%)
Catchweed [39]
  O (catchweed) weedkilling efficacy grade: 1 (weed kill ratio 5% or more, less than 20%)
Wheat [40]
  e (wheat) effect on crop grade: 0 (weed kill ratio 5% or less (practically no effect))
Beet [41]
  f (beet) effect on crop grade: 3 (weed kill ratio 40% or more, less than 70%)
Directly sown rice [42]
  b (directly sown rice) effect on crop grade: 5 (weed kill ratio 90% or more, (practically complete withering))
